Data: patent US20210069173A1, “PREPARATION OF (-)-COCAINE HYDROCHLORIDE” (Cody Laboratories, Inc., priority 2018, published 2021)
Counter-ions that a name gives are not always drawn.

What was measured:
mice = details: cited from earlier work
[1] = cited from earlier work
[2] = Distribution, metabolism and excretion of cocaine
mucous membranes = assay: Topical anesthesia of mucous membranes by pledget administration; format: in vivo, human; details: applied to mucous membranes by pledget, depends on concentration, vascularity
Protocol: When applied to mucous membranes by pledget administration, topical anesthesia develops rapidly and persists for 30 minutes or longer depending on the concentration of cocaine HCl solution used, the dose, and on the vascularity of the tissue.

experimental animals = details: cited from earlier work

COC(=O)[C@H]1[C@@H](OC(=O)c2ccccc2)C[C@@H]2CC[C@H]1N2C [Cocaine, methyl (1R,2R,3S,5S)-3-(benzoyloxy)-8-methyl-8-azabicyclo[3.2.1]octane-2-carboxylate]
potency in producing increases in locomotor activity (mice; cocaine versus cocaethylene): more potent than cocaethylene | metabolism by hydrolysis to ecgonine ([1]; by carboxylesterase-2): minimally metabolized | fraction metabolized by hydrolysis to benzoylecgonine ([1]; by hepatic carboxylesterase-1): 40-45% | fraction metabolized by hydrolysis to ecgonine methyl ester ([1]; by plasma butyrylcholinesterase and hepatic carboxylesterase-2): 40-45% | fraction N-demethylated to norcocaine ([1]; by the CYP3A4 enzyme system): 5-10% | volume of distribution ([1]; in vivo): approximately 2 L/kg | fraction eliminated unchanged in the urine ([2]; human, urine): < 5%

COC(=O)[C@H]1[C@@H](OC(=O)c2ccccc2)C[C@@H]2CC[C@H]1N2C [cocaine HCl, methyl (1R,2R,3S,5S)-3-(benzoyloxy)-8-methyl-8-azabicyclo[3.2.1]octane-2-carboxylate hydrochloride]
persistence of topical anesthesia (mucous membranes): ≥ 30 min

CCOC(=O)[C@H]1[C@@H](OC(=O)c2ccccc2)C[C@@H]2CC[C@H]1N2C [ethyl cocaine, ethyl (1R,2R,3S,5S)-3-(benzoyloxy)-8-methyl-8-azabicyclo[3.2.1]octane-2-carboxylate]
potency in producing convulsions (mice; cocaine versus cocaethylene): equipotent | potency in producing lethality (mice; ethyl cocaine versus cocaine): more potent than cocaine | elimination half-life (comparative) (experimental animals): longer elimination half-life | volume of distribution (comparative) (experimental animals): larger volume of distribution | toxicity and arrhythmogenicity (experimental animals; versus cocaine or ethanol alone): more toxic and arrhythmogenic than either substance alone

COC(=O)[C@H]1[C@@H](OC(=O)c2ccccc2)C[C@@H]2CC[C@H]1N2 [norcocaine]
total systemic exposure relative to cocaine ([2]; in vivo): less than one percent
